Assay results published in the OligoGym collection.
HELM strings list units from the 5' end as sugar, base in round brackets, then linkage (d deoxyribose, r ribose, m 2'-O-methyl, p phosphodiester). Strings are as the collection lists them; they lack the last nucleoside at the 3' end of the tested compound. [moe] = 2'-O-(2-methoxyethyl) (MOE); [sp] = phosphorothioate linkage; [m5C] = 5-methylcytosine

Molecular target: UBE3A-ATS
Assay: mouse, dose not given
Settings: ASO

Row | Substance | 3 h FOB score
1 | RNA1{[moe](T)[sp].[moe](T)p.[moe](A)p.[moe](G)p.[moe]([m5C])p.d([m5C])[sp].d(A)[sp].d(T)[sp].d([m5C])[sp].d(A)[sp].d(T)[sp].d(T)[sp].d(T)[sp].d(T)[sp].d(A)[sp].[moe](T)p.[moe](T)p.[moe]([m5C])[sp].[moe](T)}$$$$ (last 3' nucleoside missing) | 0 score 0-7
2 | RNA1{[moe](T)[sp].[moe](T)p.[moe](A)p.[moe](G)p.d(G)[sp].d(T)[sp].d([m5C])[sp].d(A)[sp].d(A)[sp].d([m5C])[sp].d([m5C])[sp].d(A)[sp].d(A)[sp].d(T)[sp].[moe](T)p.[moe](T)p.[moe](G)p.[moe]([m5C])[sp].[moe](T)}$$$$ (last 3' nucleoside missing) | 0 score 0-7
3 | RNA1{[moe](T)[sp].[moe](T)p.[moe](A)p.[moe](T)p.[moe](A)p.d(G)[sp].d(G)[sp].d(G)[sp].d(T)[sp].d(G)[sp].d(G)[sp].d(T)[sp].d(T)[sp].d(G)[sp].d(G)[sp].[moe](T)p.[moe](T)p.[moe]([m5C])[sp].[moe](A)}$$$$ (last 3' nucleoside missing) | 7 score 0-7
4 | RNA1{[moe](T)[sp].[moe](T)p.[moe](A)p.[moe](T)p.[moe](T)p.d(G)[sp].d(G)[sp].d(T)[sp].d([m5C])[sp].d(A)[sp].d(T)[sp].d([m5C])[sp].d(T)[sp].d([m5C])[sp].d(G)[sp].[moe](G)p.[moe](G)p.[moe](T)[sp].[moe](A)}$$$$ (last 3' nucleoside missing) | 4 score 0-7
5 | RNA1{[moe](T)[sp].[moe](T)p.[moe](A)p.[moe]([m5C])p.[moe](T)p.d([m5C])[sp].d([m5C])[sp].d(T)[sp].d([m5C])[sp].d(T)[sp].d(G)[sp].d(G)[sp].d(T)[sp].d(G)[sp].d(T)[sp].[moe](G)p.[moe]([m5C])p.[moe](T)[sp].[moe](G)}$$$$ (last 3' nucleoside missing) | 3.5 score 0-7
6 | RNA1{[moe](T)[sp].[moe](T)p.[moe](G)p.[moe](A)p.[moe](T)p.d([m5C])[sp].d(T)[sp].d(A)[sp].d(T)[sp].d(T)[sp].d(A)[sp].d(T)[sp].d(G)[sp].d(A)[sp].d(G)[sp].[moe](G)p.[moe](G)p.[moe]([m5C])[sp].[moe](A)}$$$$ (last 3' nucleoside missing) | 4.7 score 0-7
7 | RNA1{[moe](T)[sp].[moe](T)p.[moe](G)p.[moe](G)[sp].d(T)[sp].d([m5C])[sp].d(A)[sp].d(T)[sp].d([m5C])[sp].d(T)[sp].d([m5C])[sp].d(G)[sp].[moe](G)p.[moe](G)p.[moe](T)p.[moe](A)[sp].[moe](T)}$$$$ (last 3' nucleoside missing) | 2.3 score 0-7
8 | RNA1{[moe](T)[sp].[moe](T)p.[moe](G)p.[moe](G)p.[moe](T)[sp].d([m5C])[sp].d(A)[sp].d(T)[sp].d([m5C])[sp].d(T)[sp].d([m5C])[sp].d(G)[sp].d(G)[sp].[moe](G)p.[moe](T)p.[moe](A)[sp].[moe](T)}$$$$ (last 3' nucleoside missing) | 5 score 0-7
9 | RNA1{[moe](T)[sp].[moe](T)p.[moe](G)p.[moe](G)p.[moe](T)p.[moe]([m5C])[sp].d(A)[sp].d(T)[sp].d([m5C])[sp].d(T)[sp].d([m5C])[sp].d(G)[sp].d(G)[sp].d(G)[sp].[moe](T)p.[moe](A)[sp].[moe](T)}$$$$ (last 3' nucleoside missing) | 6.7 score 0-7
10 | RNA1{[moe](T)[sp].[moe](T)p.[moe](G)p.[moe](G)p.[moe](T)p.[moe]([m5C])p.d(A)[sp].d(T)[sp].d([m5C])[sp].d(T)[sp].d([m5C])[sp].d(G)[sp].d(G)[sp].d(G)[sp].d(T)[sp].d(A)[sp].[moe](T)p.[moe](A)[sp].[moe](T)}$$$$ (last 3' nucleoside missing) | 6.5 score 0-7
11 | RNA1{[moe](T)[sp].[moe](T)p.[moe](G)p.[moe](G)p.[moe](T)p.d(A)[sp].d(T)[sp].d(T)[sp].d(G)[sp].d(A)[sp].d([m5C])[sp].d(A)[sp].d([m5C])[sp].d([m5C])[sp].d(T)[sp].[moe]([m5C])p.[moe]([m5C])p.[moe](A)[sp].[moe](A)}$$$$ (last 3' nucleoside missing) | 1 score 0-7
12 | RNA1{[moe](T)[sp].[moe](T)p.[moe](G)p.[moe](G)p.[moe](T)p.d([m5C])[sp].d(A)[sp].d(T)[sp].d([m5C])[sp].d(T)[sp].d([m5C])[sp].d(G)[sp].d(G)[sp].d(G)[sp].d(T)[sp].[moe](A)p.[moe](T)p.[moe](A)[sp].[moe](T)}$$$$ (last 3' nucleoside missing) | 5.7 score 0-7
13 | RNA1{[moe](T)[sp].[moe](T)p.[moe](G)p.[moe](G)p.[moe]([m5C])p.d(A)[sp].d([m5C])[sp].d(A)[sp].d([m5C])[sp].d([m5C])[sp].d(T)[sp].d(G)[sp].d(G)[sp].d(A)[sp].d(T)[sp].[moe](T)p.[moe](T)p.[moe]([m5C])[sp].[moe](A)}$$$$ (last 3' nucleoside missing) | 2 score 0-7
14 | RNA1{[moe](T)[sp].[moe](T)p.[moe](G)p.[moe](G)p.[moe]([m5C])p.d(T)[sp].d(T)[sp].d(T)[sp].d(A)[sp].d(T)[sp].d(A)[sp].d([m5C])[sp].d(T)[sp].d(T)[sp].d(T)[sp].[moe](A)p.[moe]([m5C])p.[moe]([m5C])[sp].[moe]([m5C])}$$$$ (last 3' nucleoside missing) | 1 score 0-7
15 | RNA1{[moe](T)[sp].[moe](T)p.[moe](G)p.[moe](G)p.d(T)[sp].d([m5C])[sp].d(A)[sp].d(T)[sp].d([m5C])[sp].d(T)[sp].d([m5C])[sp].d(G)[sp].d(G)[sp].d(G)[sp].[moe](T)p.[moe](A)p.[moe](T)p.[moe](A)[sp].[moe](T)}$$$$ (last 3' nucleoside missing) | 4 score 0-7
16 | RNA1{[moe](T)[sp].[moe](T)p.[moe](G)p.[moe](T)p.[moe](A)p.d(G)[sp].d([m5C])[sp].d(T)[sp].d(A)[sp].d(T)[sp].d(A)[sp].d(G)[sp].d(G)[sp].d(T)[sp].d(G)[sp].[moe](T)p.[moe]([m5C])p.[moe](A)[sp].[moe]([m5C])}$$$$ (last 3' nucleoside missing) | 4 score 0-7
17 | RNA1{[moe](T)[sp].[moe](T)p.[moe](G)p.[moe]([m5C])p.[moe](T)p.[moe](G)p.d(A)[sp].d(T)[sp].d([m5C])[sp].d(A)[sp].d([m5C])[sp].d(A)[sp].d(T)[sp].d(T)[sp].d(A)[sp].d([m5C])[sp].[moe]([m5C])p.[moe]([m5C])[sp].[moe](A)}$$$$ (last 3' nucleoside missing) | 1 score 0-7
18 | RNA1{[moe](T)[sp].[moe](T)p.[moe](G)p.[moe]([m5C])p.[moe](T)p.d(G)[sp].d(A)[sp].d(T)[sp].d([m5C])[sp].d(A)[sp].d([m5C])[sp].d(A)[sp].d(T)[sp].d(T)[sp].d(A)[sp].[moe]([m5C])p.[moe]([m5C])p.[moe]([m5C])[sp].[moe](A)}$$$$ (last 3' nucleoside missing) | 0 score 0-7
19 | RNA1{[moe](T)[sp].[moe](T)p.[moe](G)p.[moe]([m5C])p.d(T)[sp].d(G)[sp].d(A)[sp].d(T)[sp].d([m5C])[sp].d(A)[sp].d([m5C])[sp].d(A)[sp].d(T)[sp].d(T)[sp].[moe](A)p.[moe]([m5C])p.[moe]([m5C])p.[moe]([m5C])[sp].[moe](A)}$$$$ (last 3' nucleoside missing) | 0 score 0-7
20 | RNA1{[moe](T)[sp].[moe](T)p.[moe](T)p.[moe](A)p.[moe](G)p.d(G)[sp].d(T)[sp].d([m5C])[sp].d(A)[sp].d(A)[sp].d([m5C])[sp].d([m5C])[sp].d(A)[sp].d(A)[sp].d(T)[sp].[moe](T)p.[moe](T)p.[moe](G)[sp].[moe]([m5C])}$$$$ (last 3' nucleoside missing) | 0 score 0-7
21 | RNA1{[moe](T)[sp].[moe](T)p.[moe](T)p.[moe](A)p.[moe](T)p.d(A)[sp].d(G)[sp].d(G)[sp].d(G)[sp].d(T)[sp].d(G)[sp].d(G)[sp].d(T)[sp].d(T)[sp].d(G)[sp].[moe](G)p.[moe](T)p.[moe](T)[sp].[moe]([m5C])}$$$$ (last 3' nucleoside missing) | 6 score 0-7
22 | RNA1{[moe](T)[sp].[moe](T)p.[moe](T)p.[moe](A)p.[moe](T)p.d(A)[sp].d([m5C])[sp].d(T)[sp].d(T)[sp].d(T)[sp].d(A)[sp].d([m5C])[sp].d([m5C])[sp].d([m5C])[sp].d(A)[sp].[moe](A)p.[moe]([m5C])p.[moe](T)[sp].[moe](T)}$$$$ (last 3' nucleoside missing) | 0 score 0-7
23 | RNA1{[moe](T)[sp].[moe](T)p.[moe](T)p.[moe](A)p.[moe](T)p.d(T)[sp].d(G)[sp].d(G)[sp].d(T)[sp].d([m5C])[sp].d(A)[sp].d(T)[sp].d([m5C])[sp].d(T)[sp].d([m5C])[sp].[moe](G)p.[moe](G)p.[moe](G)[sp].[moe](T)}$$$$ (last 3' nucleoside missing) | 3.7 score 0-7
24 | RNA1{[moe](T)[sp].[moe](T)p.[moe](T)p.[moe](G)p.[moe](G)p.d(T)[sp].d(A)[sp].d(T)[sp].d(T)[sp].d(G)[sp].d(A)[sp].d([m5C])[sp].d(A)[sp].d([m5C])[sp].d([m5C])[sp].[moe](T)p.[moe]([m5C])p.[moe]([m5C])[sp].[moe](A)}$$$$ (last 3' nucleoside missing) | 3.7 score 0-7
25 | RNA1{[moe](T)[sp].[moe](T)p.[moe](T)p.[moe](G)p.[moe](G)p.d([m5C])[sp].d(T)[sp].d(T)[sp].d(T)[sp].d(A)[sp].d(T)[sp].d(A)[sp].d([m5C])[sp].d(T)[sp].d(T)[sp].[moe](T)p.[moe](A)p.[moe]([m5C])[sp].[moe]([m5C])}$$$$ (last 3' nucleoside missing) | 0 score 0-7
26 | RNA1{[moe](T)[sp].[moe](T)p.[moe](T)p.[moe](G)p.[moe](T)p.d(A)[sp].d(G)[sp].d([m5C])[sp].d(T)[sp].d(A)[sp].d(T)[sp].d(A)[sp].d(G)[sp].d(G)[sp].d(T)[sp].[moe](G)p.[moe](T)p.[moe]([m5C])[sp].[moe](A)}$$$$ (last 3' nucleoside missing) | 2.3 score 0-7
27 | RNA1{[moe](T)[sp].[moe](T)p.[moe](T)p.[moe](G)p.[moe]([m5C])p.d(T)[sp].d(T)[sp].d(T)[sp].d(T)[sp].d([m5C])[sp].d(A)[sp].d(G)[sp].d(T)[sp].d([m5C])[sp].d(A)[sp].[moe](G)p.[moe](G)p.[moe](T)[sp].[moe](A)}$$$$ (last 3' nucleoside missing) | 1 score 0-7
